From paper PMC5526551, “New hydrazonoindolin-2-ones: Synthesis, exploration of the possible anti-proliferative mechanism of action and encapsulation into PLGA microspheres” (PLoS ONE, 2017)
“Also recorded” adds a separate entry of the source. Read-outs that look alike come from different tables or passages of the source.

What was measured:
Type in all cases: cell-based, human
[1] = system: A549; test: Anti-proliferative activity, cell growth inhibition (CellTiterGlo, 72 h); conditions: Homo sapiens; for IC50: A549, 72 h, read-out: IC50 A-549; for inhibition at 30 µM: A549, quadruplicate, read-out: Cell growth inhibitory activity, A-549
Experimental: (§1) Twenty compounds, i.e. 4a-o and 7a-e, were analyzed for cancer cell growth inhibitory activity. These studies were carried out using cells derived from human lung, colon and breast tumors (A549, HT-29 and ZR-75 cells, respectively). This initial assessment of activity tested each compound in quadruplicate at a single concentration of 30 μM, if solubility permitted.
(§2) A549, HT-29, ZR-75 were obtained from the American Type Culture Collection (ATCC). Cells were harvested from 90-95% confluent 10 cm dishes, and diluted in growth media (RPMI-1640 supplemented with 5% fetal bovine serum). An appropriate concentration of cells were prepared to add 1,250 cells in a volume of 25 µL per well in tissue culture treated Griener 384-well microplates, then incubated overnight at 37°C. Compound 7e was diluted to a concentration of 30 µM in DMSO. Concentrated dosing solutions of twice the final concentration were prepared by dilution of the DMSO stocks 1:500 in growth media. Two-fold serial dilutions were then prepared in medium containing 0.2% DMSO to maintain a constant concentration of vehicle throughout the concentration range of the compound. Each of these was added in an equal volume (25 µL) to four wells on each cell assay plate, along with the vehicle control. The highest concentration for serial dilutions of the positive control (sunitinib) was prepared exactly as the experimental compound 7e. Cells were incubated with the compounds for a further 72 h.
(§3) At the end of the treatment period, assay plates were allowed to cool to RT for 10 min prior to the addition of 25 µL per well Promega CellTiterGlo reagent, followed by additional 10 min incubation at RT. The resulting luminescence was quantitated using a Molecular Devices Spectramax Paradigm.
(§4) Percent growth inhibition was calculated as follows, where 100 represents the viability of vehicle treated control samples:
(§5) The potency of compounds was determined using the non-linear dose response algorithm (four-parameter logistic fit) with GraphPad Prism 5 software.

[2] = system: HT-29; test: as above; conditions: Homo sapiens; for IC50: HT-29, 72 h, 72 h; for inhibition at 30 µM: HT-29, quadruplicate, read-out: Cell growth inhibitory activity, HT-29
Experimental: as §1, §2, §3, §4, §5

[3] = system: ZR-75; test: as above; conditions: Homo sapiens; for IC50: ZR75, 72 h; for inhibition at 30 µM: ZR75, quadruplicate, read-out: Cell growth inhibitory activity, ZR-75
Experimental: as §1, §2, §3, §4, §5

[4] = system: HT-29, ZR-75 and A-549 cell lines; test: Average anti-proliferative activity over the three cancer cell lines; conditions: Homo sapiens, average of HT-29, ZR-75, A-549; for inhibition at 30 µM: read-out: Average Growth Inhibition %
Experimental: as §1
Therefore, they were subjected to quantitative inhibitory concentration 50% (IC50) determination for their cell growth inhibitory activity towards the A549, HT-29 and ZR-75 cancer cell lines.
as §2, §5

[5] = system: A549; test: Cell cycle effects and total cell number (DAPI imaging); conditions: for Cell cycle effects: A549; for IC50: Homo sapiens
Experimental: Compound 7e was analyzed for effects on various aspects of cell cycle progression in human cancer cells. These studies were carried out using cells derived from lung adenocarcinoma (A549). This follow-up assessment of activity tested compounds used immunofluorescent imaging of phosphorylated Rb protein and the total DNA content of each cell to determine the cell cycle phase. The ability of the test compounds to affect the cell cycle and Rb phosphorylation was tested over a range of concentrations from less than 100 nM to 50 μM.
Fig 5 Dose-dependent changes in cell cycle. Distribution of cells within the cell cycle as well as total cell numbers were quantitated by fluorescent staining of nuclear DNA with DAPI. Phosphorylated Rb protein was detected by indirect immunofluorescence followed by automated image acquisition and analysis. […] All IC50 values are given under one unlabelled substance, with the y-axis title of each plot written in front as the measure.
A549 cells were harvested from a 90% confluent 10 cm dish and diluted in growth medium. An appropriate concentration of cells were prepared to add 5,000 cells in a volume of 100 µL per well in tissue culture treated PerkinElmer optical bottom ViewPlate microplates, then incubated overnight at 37°C. The following day, compound 7e and the positive control, sunitinib, were diluted in DMSO to concentrations 1000-fold above the maximum tested concentration.
Concentrated dosing solutions of twice the final concentration were prepared by dilution of the DMSO stocks 1:500 in growth media. Three-fold dilutions of each dosing medium were then prepared in medium containing 0.2% DMSO to maintain a constant concentration of vehicle throughout the concentration range of each compound. Each of these was added in equal volume (100 µL) to each well on the assay plate, along with the vehicle control. One plate of cells was incubated with the compounds for a further 24 h, and a separate plate was incubated with the compounds for 48 h.
DAPI (1 µg/mL) fluorescent dye was incubated with fixed cells to quantitate double stranded DNA within each cell nucleus to determine cell cycle distribution. DNA content in each cell was determined by total DAPI fluorescent intensity by high throughput image acquisition and analysis. Fluorescent intensities were plotted on histograms with threshold intensity values assigned to each cell cycle classification using the MetaXpress cell cycle analysis program. Results from each treatment were reported as average cell number in each of nine fields, as well as the percentage of cells within each phase of the cell cycle. Each of these parameters was analyzed using GraphPad Prism, and, where appropriate, IC50 values have been reported.

[6] = system: phosphorylated tyrosine (p-Tyr) in A549 cells; test: Total cellular tyrosine phosphorylation after serum stimulation (immunofluorescent imaging); conditions: for Change in p-Tyr levels: A549, serum stimulated; for IC50: A549, 10 min 10% fetal bovine serum, apparent IC50 of an increase for 7e, of a decrease for sunitinib, read-out: IC50 for change in total tyrosine phosphorylation (p-Tyr) levels
Experimental: Furthermore, compound 7e was analyzed for its effect on total cellular levels of phosphorylated tyrosine (p-Tyr) residues in human cancer cells. These studies were carried out using cells derived from lung adenocarcinoma (A549) and immunofluorescent imaging. The ability of the test compound 7e to affect acute serum stimulation of tyrosine phosphorylation was tested over a range of concentrations from less than 100 nM to 50 μM.
Cells were stimulated for 10 min with 10% fetal bovine serum. Phosphotyrosine levels were determined by indirect immunofluorescence followed by automated image acquisition and analysis.

[7] = A549, 24 h, read-out: IC50 for reductions in the total cell number
[8] = A549, 48 h, read-out: IC50 for reductions in the total cell number

SMILES	IC50 [1]	inhibition at 30 µM [1]	IC50 [2]	inhibition at 30 µM [2]	IC50 [3]	inhibition at 30 µM [3]	inhibition at 30 µM [4]	IC50 [4]	Cell cycle effects [5]	IC50 ([5]; A549, 24 h, read-out: IC50, % G1-Phase cells)	IC50 [5, 7]	IC50 ([5]; A549, 48 h, read-out: IC50, % G1-Phase cells)	IC50 [5, 8]	Change in p-Tyr levels [6]	IC50 ([6]; Homo sapiens, A549, 10 min)	IC50 [6]
O=C1Nc2ccc(Br)cc2C1=NN=C1C(=O)N(Cc2ccccc2)c2ccccc21 [Compound 7e, 1-Benzyl-3-((5-bromo-2-oxoindolin-3-ylidene)hydrazono)indolin-2-one]	2.83 µM	97.1 ± 3.3%	2.49 µM	95.7 ± 4.2%	1.79 µM	96.1 ± 4.6%	96.3%	2.37 µM	decreased the percentage of cells in the G1 phase of the cell cycle with a corresponding increase in the S-phase; also recorded: decrease in the percentage of cells in the G1 phase of the cell cycle with a corresponding increase in the S-phase; also recorded: G1 decreased, S-phase increased	6.26 µM	2.67 µM	5.16 µM	2.36 µM	nearly two-fold	3.8 µM	–
CCN(CC)CCNC(=O)c1c(C)[nH]c(/C=C2\C(=O)Nc3ccc(F)cc32)c1C [Sunitinib, sunitinib, reference compound]	5.87 µM	85.7 ± 2.7%	10.1 µM	59.5 ± 2.3%	8.31 µM	90.7 ± 4.5%	78.7%	8.11 µM	G1 decreased and G2/M-phases increased	–	12.5 µM	–	3.48 µM	modest dose-dependent decrease	0.9 µM	0.91 µM
